Experimental data reported in publication PMC8333425, “Discovery of a dual Ras and ARF6 inhibitor from a GPCR endocytosis screen” (Nature Communications, 2021).
“And” between values parts separate entries of the source, which are not always exact repeats. Identical values can stand only once.

Columns and labels:
[1] = test system: β-arrestin2 recruitment to B2R; experiment: BRET recruitment of β-arrestin2 to B2R; format: cell-based, human
Method: HEK293SL cells were seeded at a density of 7.5 × 10^5 cells per 100-mm dish and 24 h later, transiently transfected as such. For receptor internalization experiments, cells were transfected with 0.12 μg AT1R-RlucII, B2R-RlucII, or β2AR-RlucII and 0.48 μg of either rGFP-CAAX (to assess removal from the PM) or rGFP-FYVE (to assess accumulation in the endosomes). For β-arrestin recruitment assays, cells were transfected with 0.48 μg of receptor-YFP along with 0.12 μg of β-arrestin-RlucII. For β-arrestin/AP-2 binding experiments, cells were transfected with 1 μg Flag-AT1R, 1 μg β2-Adaptin-YFP, and 0.12 μg β-arrestin2-RlucII. For G protein activation, cells were transfected with 3 μg of sp-Flag-AT1R along with either 4.5 μg of the Gαq-polycistronic BRET sensor or 0.24 μg of the Gαi3-RlucII and 0.6 μg of GFP10-Gγ2 and Gβ1 sensors or 0.12 μg PKN-RBD-RlucII and 0.48 μg of rGFP-CAAX. For PKC activation, cells were transfected with 3 μg of sp-Flag-AT1R and 0.18 μg of the PKC sensor. For GTPase activation experiments, cells were transfected with 1 μg Flag-AT1R, 0.48 μg of rGFP-CAAX, and either 0.12 μg of GGA3-PBD-RlucII, PAK-CRIB-RlucII or Raf-RBD-RlucII. For biosensor validation experiments, cells were additionally transfected with 500 ng Flag-K-Ras-WT, Flag-K-Ras-G12V, Flag-K-Ras-SOS-CAAX, HA-ARF6-WT, HA-ARF6-T27N, Myc-Rac1-WT, Myc-Rac1-Q61L or Myc-Rac1-T17N. For PI3K/Akt activation experiments, cells were transfected with 0.48 μg of rGFP-CAAX and 0.12 μg of Akt (PH)-RlucII. After 18 h of transfection, the media was replaced and cells were divided for subsequent experiments. Cells were detached and seeded onto poly-L-ornithine-coated 96-well flat white bottom plates (BrandTech Scientific) at a density of 2.5 × 10^4 cells per well in media. The next day, cells were washed once with Tyrode’s buffer (140 mM NaCl, 2.7 mM KCl, 1 mM CaCl2, 12 mM NaHCO3, 5.6 mM D-glucose, 0.5 mM MgCl2, 0.37 mM NaH2PO4, 25 mM HEPES, pH 7.4) and left in Tyrode’s buffer. For kinetics of β-arrestin recruitment or β-arrestin binding to receptor and AP-2 experiments, cells were serum starved for 30 min, pretreated with 21 (50 µM) or Barbadin (100 µM) for 30 min, stimulated with 100 nM AngII or 1 µM BK and BRET signals were monitored at indicated times using a Victor X Light plate reader (PerkinElmer). Coelenterazine H (final concentration of 5 µM) was added 3–5 min prior to BRET measurements. Filter set was 460/80 nm and 535/30 nm for detecting the RlucII Renilla luciferase (donor) and YFP (acceptor) light emissions, respectively. The BRET ratio was determined by calculating the ratio of the light emitted by YFP over the light emitted by the RlucII. For G protein activation, cells were serum starved, pretreated with compounds for 30 min, stimulated with 100 nM AngII for 2 min (Gαq, Gαi3, and Rho sensors) or 5 min (PKC sensor). For the kinetics of GTPase and PI3K/Akt activation, cells were serum starved, pretreated with 21 (50 µM) or Wortmannin (200 nM) for 30 min, stimulated with ligand (100 nM AngII or 100 ng/ml EGF) and BRET signals were monitored at indicated times. For concentration-response curves, cells were serum-starved, pretreated with various concentrations of compounds for 30 min and stimulated with ligand (100 nM AngII, 1 µM BK, 10 µM Isoproterenol (Iso) or 100 ng/ml EGF) in Tyrode’s buffer for 30 min for receptor internalization, 10 min for ARF6, 2 min for Rac and Rho activation and 5 min for Ras activation and PI3K/Akt activation. BRET signals were monitored using a Synergy2 (BioTek) microplate reader and coelenterazine 400a (final concentrations of 5 µM) added 3–5 min prior to BRET measurements. Filter set was 410/80 nm and 515/30 nm for detecting the RlucII Renilla luciferase (donor) and rGFP/GFP10 (acceptor) light emissions, respectively. The BRET ratio was determined by calculating the ratio of the light emitted by rGFP/GFP10 over the light emitted by the RlucII.

[2] = test system: ERK1/2 activation by AT1R; experiment: Western blot of AT1R-mediated ERK1/2 activation in Gαq/11 KO cells (with or without β-arrestin2); format: cell-based, human; conditions: for ERK1/2 activation by AT1R in cells lacking Gαq/11, supplemented or not with β-arrestin: 50 μM
Method: HEK293SL cells (10^5 cells per well) were seeded in a poly-L-lysine-coated six-well plate and transiently transfected with 3 μg Flag-AT1R, HA-B2R or HA-β2AR and/or 500 ng Flag-MEK1-WT, Flag-MEK1-DD, Flag-BRAF-WT, Flag-BRAF-V600E, Flag-K-Ras-WT, Flag-K-Ras-G12V, HA-ARF6-WT, or HA-ARF6-T27N. Gαq/11 KO and βarr1/2 KO cells were seeded onto 100 mm dishes at a density of 10^6 cells per dish. Next day, cells were transfected with 3 μg AT1R alone or along with 500 ng of β-arrestin2 using PEI. After 18 h of transfection, cells were detached and re-seeded onto poly-L-lysine coated 12-well plates (~1.5–2 × 10^5cells/well) for subsequent experiments. Forty-eight hours post transfection, in a 37 °C water bath, cells were serum-starved for 30 min, pretreated with DMSO (0.1%) or compound 21/Rasarfin (50 µM or at indicated concentrations) for 30 min, then stimulated or not with the indicated ligand [AngII (1 µM), BK (1 µM), Iso (10 µM) or EGF (100 ng/ml)] at indicated times. Cells were put on ice, washed with PBS and solubilized in 2x laemmli buffer (250 mM Tris–HCl pH 6.8, 2% SDS (w/v), 10% glycerol (v/v), 0.01% bromophenol blue (w/v) and 5% β-mercaptoethanol (v/v)) by heating at 65 °C for 15 min. Lysates were resolved on 10 or 14% SDS-PAGE, transferred to nitrocellulose membranes and immunoblotted for p-ERK1/2, ERK1/2, p-Akt, Akt, HA, Myc, β-actin or FLAG. ImageLab 5.2 software was used to quantify the digital blots as fold of the phosphorylated protein over total protein, which were then normalized as indicated in the figure legends. Uncropped immunoblots are provided in the Source Data file.

[3] = Gq/11 KO cells + barr2, Time 0 min

CC(C)C(=O)N1CCN(c2ccc(NC(=O)c3cc4ccccc4o3)cc2Cl)CC1 [Compound 21]
β-arrestin2 recruitment to B2R at the PM ([1]; 50 μM): did not preclude | BK-promoted BRET, Barr2 ([1]; Time 0 min): 0 | BK-promoted BRET, Barr2 ([1]; Time 5 min, listed as Comp 21): 0.1301 and 0.1897 and 0.1572 | BK-promoted BRET, Barr2 ([1]; Time 10 min, listed as Comp 21): 0.1662 and 0.2107 and 0.2145 | BK-promoted BRET, Barr2 ([1]; Time 15 min, listed as Comp 21): 0.1989 and 0.1955 and 0.2222 | BK-promoted BRET, Barr2 ([1]; Time 30 min, listed as Comp 21): 0.2065 and 0.1814 and 0.2273 | BK-promoted BRET, Barr2 ([1]; Time 60 min, listed as Comp 21): 0.2055 and 0.169 and 0.2219 | ERK1/2 activation by AT1R in cells lacking Gαq/11, supplemented or not with β-arrestin [2]: efficiently inhibited ERK1/2 activation | ERK1/2 activation by AT1R in cells lacking Gαq/11, supplemented or not with β-arrestin ([2]; listed as Rasarfin): totally blocked | ERK1/2 activation relative to time 0 (S_Fig.4a) [2, 3]: 1 | Predicted (LS) mean diff. DMSO - Comp 21 (Bonferroni's multiple comparisons test) [2, 3]: 0 | Predicted (LS) mean diff. DMSO - Comp 21 (Bonferroni's multiple comparisons test) ([2]; Gq/11 KO cells + barr2, Time 5 min): 5.112 | Predicted (LS) mean diff. DMSO - Comp 21 (Bonferroni's multiple comparisons test) ([2]; Gq/11 KO cells + barr2, Time 20 min): 2.869 | ERK1/2 activation relative to time 0 (S_Fig.4a) ([2]; Gq/11 KO cells, Time 0 min): 1 | Mean Diff. DMSO - Comp 21 (Bonferroni's multiple comparisons test) ([2]; Gq/11 KO cells, Time 0 min): 0 | Mean Diff. DMSO - Comp 21 (Bonferroni's multiple comparisons test) ([2]; Gq/11 KO cells, Time 5 min): 14.92 | ERK1/2 activation relative to time 0 (S_Fig.4a) ([2]; Gq/11 KO cells, Time 5 min, listed as Comp 21): 0.6393 and 0.9475 and 0.8926 and 0.5297 | Mean Diff. DMSO - Comp 21 (Bonferroni's multiple comparisons test) ([2]; Gq/11 KO cells, Time 20 min): 7.116
